Here are results for seven compounds from paper PMC10609429, “Crystal Structure and Intermolecular Energy for Some Nandrolone Esters” (Molecules, 2023).

Converted amounts (≈) assume the structure as drawn. “And” between values parts separate entries of the source, which are not always exact repeats. Identical values can stand only once. Like-named read-outs stand apart in the source and are kept apart here.

The conditions of data set [1]: analogue esters of testosterone; cited from earlier work.
On the set-up of data set [2]: method as in PMID 28522428. The settings on record: two polymorphs, respectively; ambient temperature of 20 °C; mixtures of castor oil; cited from earlier work.
A short description of data set [3]: Solubility evaluation of nandrolone esters in oil / benzyl benzoate / benzyl alcohol mixtures. It is filed as physicochemical. The settings on record: 24 °C, oil or lipid, thermodynamic from solid. How it is done:
From a pharmaceutical standpoint, the solubility of esterified agents (mg/mL) plays an important role in drug development and delivery. In this context, the solubilities were evaluated in multiple mixtures based on various organic oils: medium-chain triglyceride (MCT), apricot, grape seed oil (GSO) and cottonseed oil. Each solution contains a mixture of benzyl alcohol, benzyl benzoate and oil with a volumetric ratio of 2% benzyl alcohol, 20% benzyl benzoate and the rest of 78% oil.
Solubility evaluation was accomplished at a room temperature of 24 °C in successive additions of small quantities of raw materials (a few mg each step). The mixtures were stirred for up to several hours in order to achieve a completely dissolved solution. In the case that an undissolved excess of raw materials remained in the suspension, small quantities of mixtures were added until the solutions became perfectly homogenous and clear. Two measurements were performed in order to attain a good accuracy; their average was further discussed.

For data set [4] the following is noted: unesterified nandrolone; cited from earlier work.
On the set-up of data set [5]: method as in PMID 817322. The settings on record: oral vs subcutaneous; cited from earlier work.
Where [6] appears, read: average over the four oil mixtures (apricot, GSO, MCT, cottonseed), read-out: Solubility (average).
Setting [7] is: medium-chain triglyceride mixture: 2% benzyl alcohol, 20% benzyl benzoate, 78% oil (v/v), room temperature 24 °C, average of two measurements, read-out: Solubility, MCT.
Where [8] appears, read: apricot oil / benzyl benzoate / benzyl alcohol mixture, apricot oil mixture: 2% benzyl alcohol, 20% benzyl benzoate, 78% oil (v/v), room temperature 24 °C, average of two measurements, read-out: Solubility, APRICOT.
The mark [9] stands for this setting: cottonseed oil / benzyl benzoate / benzyl alcohol mixture, cottonseed oil mixture: 2% benzyl alcohol, 20% benzyl benzoate, 78% oil (v/v), room temperature 24 °C, average of two measurements, read-out: Solubility, COTTON.
[10] abbreviates: grape seed oil / benzyl benzoate / benzyl alcohol mixture, grape seed oil mixture: 2% benzyl alcohol, 20% benzyl benzoate, 78% oil (v/v), room temperature 24 °C, average of two measurements, read-out: Solubility, GSO.

By solubility is commonly meant the concentration that dissolves in the medium under given conditions. For the compound `C[C@]12CC[C@H]3[C@@H](CCC4=CC(=O)CC[C@@]43C)[C@@H]1CC[C@@H]2OC(=O)CCC1CCCC1` [testosterone cypionate], the solubility in data set [1] was 255 mg/mL (≈ 618 mM).
As to `CCCCCC(=O)O[C@]1(C(C)=O)CC[C@H]2[C@@H]3CCC4=CC(=O)CC[C@]4(C)[C@H]3CC[C@@]21C` [hydroxyprogesterone caproate], the solubility in data set [2] was 278 mg/mL and 301 mg/mL.
As for `CCCCCCCCCCC(=O)OC1CCC2C3CCC4=CC(=O)CCC4C3CCC12C` (centres unmarked) [NUnd, Nandrolone undecanoate], the solubility was roughly 192 mg/mL (≈ 433 mM) in data set [3] (setting [6]); 211 mg/mL (≈ 478 mM) in data set [3] (setting [7]); 183 mg/mL (≈ 413 mM) in data set [3] (setting [8]); 199 mg/mL (≈ 450 mM) in data set [3] (setting [9]); 173 mg/mL (≈ 391 mM) in data set [3] (setting [10]).
Regarding `C[C@]12CC[C@H]3[C@@H](CCC4=CC(=O)CC[C@@H]43)[C@@H]1CC[C@@H]2O` [nandrolone, Estr-4-en-17β-ol-3-one], the Half-life entry in data set [4] is on record as “a few hours”. Further, the “Potency of the oral form compared with subcutaneous administration” value in data set [5] was “one-tenth”.
Turning to `CCC(=O)OC1CCC2C3CCC4=CC(=O)CCC4C3CCC12C` (centres unmarked) [NPro, Nandrolone propionate], the solubility in data set [3] (setting [6]) was roughly 188 mg/mL (≈ 569 mM); in data set [3] (setting [7]) it was 187 mg/mL (≈ 566 mM); in data set [3] (setting [8]), 181 mg/mL (≈ 548 mM); in data set [3] (setting [9]) it was 180 mg/mL (≈ 544 mM); in data set [3] (setting [10]), 204 mg/mL (≈ 619 mM).
Consider `CCCCCCCCCCC(=O)O[C@H]1CC[C@H]2[C@@H]3CCC4=CC(=O)CC[C@]4(C)[C@H]3CC[C@]12C` [undecanoate ester of testosterone], for which the solubility in data set [1] is 197 mg/mL (≈ 431 mM).
Take `C[C@]12CC[C@H]3[C@@H](CCC4=CC(=O)CC[C@@H]43)[C@@H]1CC[C@@H]2OC(=O)CCc1ccccc1` [NPhp, Nandrolone phenylpropionate]: the solubility in data set [3] (setting [6]) is roughly 138 mg/mL (≈ 339 mM); in data set [3] (setting [7]), 148 mg/mL (≈ 365 mM); in data set [3] (setting [8]), 127 mg/mL (≈ 313 mM); in data set [3] (setting [9]), 140 mg/mL (≈ 345 mM); in data set [3] (setting [10]), 137 mg/mL (≈ 336 mM).
